Assay results as given in PubChem BioAssay (NCI).
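1) Cells in 96-well plates. 2) Compound, 48 h, 5 concentrations. 3) Linear interpolation between surrounding doses. 4) Unreached endpoint = highest concentration. GI50 is the concentration that inhibits growth by half. At the TGI there is no net growth.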

Tests used:
Test in all cases: DTP human tumour cell line panel, 48 h
KM12 colon = tested on: KM12 colon
HOP-18 NSCLC = tested on: HOP-18 NSCLC
DMS 273 small cell lung = tested on: DMS 273 small cell lung
MALME-3M melanoma = tested on: MALME-3M melanoma
SN12C renal = tested on: SN12C renal
SF-295 CNS = tested on: SF-295 CNS
M19-MEL melanoma = tested on: M19-MEL melanoma
SNB-78 CNS = tested on: SNB-78 CNS
TK-10 renal = tested on: TK-10 renal
RXF 393 renal = tested on: RXF 393 renal
HS 578T breast = tested on: HS 578T breast
PC-3 prostate = tested on: PC-3 prostate

SMILES	TGI (KM12 colon)	TGI (HOP-18 NSCLC)	TGI (DMS 273 small cell lung)	TGI (MALME-3M melanoma)	TGI (SN12C renal)	TGI (SF-295 CNS)	TGI (M19-MEL melanoma)	TGI (SNB-78 CNS)	TGI (TK-10 renal)	TGI (RXF 393 renal)	GI50 (HS 578T breast)	TGI (HS 578T breast)	GI50 (KM12 colon)	GI50 (PC-3 prostate)	TGI (PC-3 prostate)	GI50 (MALME-3M melanoma)	GI50 (SN12C renal)	GI50 (SF-295 CNS)	GI50 (TK-10 renal)	GI50 (RXF 393 renal)
CCCCCC[C@@H]1CCC2C(CO)[C@@H](O)CC[C@@H]2C1 (stereo partly drawn)	36.2 µM	43 µM	39.4 µM	36.1 µM	30.6 µM	30.3 µM	35.3 µM	41.3 µM												
C=CC[C@H](C[C@H](C[C@H](C[C@H](C[C@H](C[C@H](C[C@H](C[C@H](C[C@H](C[C@H](CCCCC)OC)OC)OC)OC)OC)OC)OC)OC)OC)OC	> 100 µM	> 100 µM	> 100 µM	> 100 µM	> 100 µM	> 100 µM	> 100 µM	> 100 µM	> 100 µM	> 100 µM										
C/C(=N/Nc1ccc([N+](=O)[O-])cc1[N+](=O)[O-])C(CC(C(=O)NCc1ccccc1)/C(C)=N\Nc1ccc([N+](=O)[O-])cc1[N+](=O)[O-])C(=O)NCc1ccccc1 (stereo not drawn)	15 µM	9.48 µM	20.4 µM	30.8 µM	15.1 µM	18.2 µM	23.9 µM	31 µM		15 µM										
O=C1C=CC(=O)c2nc3c(cc21)CCC3	> 100 µM	39.8 µM	47.4 µM	31.4 µM	40.3 µM	> 100 µM	31.2 µM	42 µM	32.7 µM	34.2 µM										
C=C(C)CCOC(c1ccccc1)(c1ccccc1)c1ccccc1	> 100 µM			> 100 µM	> 100 µM	> 100 µM	> 100 µM	> 100 µM	> 100 µM	82.8 µM										
O=C(/C=C/c1ccc([N+](=O)[O-])cc1)c1ccc(NCc2nc3ccccc3[nH]2)cc1	3.47 µM	31.3 µM	13.6 µM	28.3 µM	14.8 µM	18.1 µM	15.3 µM	29 µM	19.9 µM											
N#C/C(=C\c1cccc(Cl)c1Cl)c1ccccc1	> 100 µM	> 90.4 µM	> 54.1 µM	> 70 µM	> 100 µM	60.4 µM	> 100 µM	> 100 µM	91.6 µM	> 79.2 µM										
Cc1cc2c(C)[nH]nc2c(C(=O)O)c1C	> 100 µM		> 100 µM		> 100 µM	> 100 µM	> 100 µM	> 100 µM		> 100 µM										
COc1ccc(C)cc1-c1cc(Sc2ccccc2)c(-c2cc(C)ccc2OC)o1	> 31.6 µM	> 31.6 µM	> 31.6 µM	> 31.6 µM	> 31.6 µM	> 100 µM	> 31.6 µM	> 31.6 µM	> 31.6 µM											
CC(C)(C)c1cc2c(O)c3cccc4c(=O)c5cccc6c5-c(c34)c2c(c1)c6=O	> 100 µM	> 100 µM	> 100 µM	> 100 µM	> 100 µM	> 100 µM	> 100 µM		> 100 µM	97.8 µM										
CCN1C(=O)N(c2ccccc2)C2NC(=S)N(/N=C/C=C/c3ccccc3OC)C21 (stereo not drawn)	> 36.1 µM			> 100 µM	> 42.2 µM	25.7 µM			> 100 µM	> 100 µM	0.0858 µM	> 100 µM	0.101 µM	0.111 µM	> 89.3 µM	0.722 µM	0.139 µM	0.0749 µM	23.3 µM	0.916 µM
O=C(Nc1ccccc1-c1nn(C(=S)Nc2ccccc2)c(=S)n(C(=S)Nc2ccccc2)c1=O)C(F)(F)F	52 µM	> 100 µM	> 100 µM	> 79.1 µM	> 100 µM	> 100 µM	> 94.9 µM	> 100 µM	> 96.3 µM	> 100 µM										
CN(C)CCn1c2c3ccccc3ccc2c2oc(=O)c3ccccc3c21	37 µM	35.3 µM		26.3 µM		20.8 µM	25 µM	48.1 µM	25.1 µM											
CCOC(=O)C1=C(C(=O)OCC)C2c3ccccc3C=CN2C(C(=O)OCC)=C(SC)S1 (stereo not drawn)			> 100 µM	> 100 µM	> 100 µM	> 100 µM	> 100 µM	> 100 µM	> 100 µM	> 100 µM										
c1ccc(NCn2cnc3ccccc32)cc1	> 100 µM	> 100 µM	> 100 µM	> 100 µM	> 100 µM	> 100 µM	> 100 µM	> 100 µM	> 100 µM	> 100 µM										
O=S(=O)(N/N=C/c1cccc(/C=N/NS(=O)(=O)c2ccccc2)c1)c1ccccc1	> 100 µM	> 100 µM	> 100 µM	> 100 µM	> 100 µM	> 100 µM	> 100 µM	> 100 µM	> 100 µM	> 100 µM										
COC(=O)C(CCCN1C(=O)c2ccccc2C1=O)C(=O)OC	> 100 µM	> 100 µM	> 100 µM	> 100 µM	> 100 µM	> 100 µM	> 100 µM	> 100 µM	> 100 µM	> 100 µM										
COc1ccc(CCN=C2NC(=O)/C(=C/c3ccc4ncccc4c3)S2)cc1	> 25 µM			> 25 µM	> 25 µM	> 25 µM			> 25 µM	> 25 µM	> 25 µM	> 25 µM	> 25 µM	> 25 µM	> 25 µM	> 25 µM	> 25 µM	> 25 µM	> 25 µM	> 25 µM
Nc1n[nH]c2cc(F)c([C@@H]3Nc4ccc5[nH]ncc5c4[C@H]4C5CCC(C5)[C@@H]34)cc12 (stereo partly drawn)	4.01 µM			28.3 µM	37.1 µM	6.03 µM			> 50 µM	2.52 µM	0.173 µM	11.6 µM	0.18 µM	0.238 µM	18.7 µM	1.47 µM	0.228 µM	0.12 µM	3.46 µM	0.124 µM
Nc1ccc(C2=NNC(=O)Cc3cc4c(cc32)OCCO4)cc1Cl	> 50 µM			> 50 µM	> 50 µM	> 50 µM			> 50 µM	19.3 µM	4.33 µM	25 µM	1.74 µM	7.94 µM	> 50 µM	4.13 µM	14.9 µM	2.49 µM	18.9 µM	5.27 µM
